Laboratory results reported in patent US20230071574A1, “ANTI-HAIR LOSS AND HAIR GROWTH INTEGRATED CORE-SHELL MICRONEEDLE PATCH” (Tangyi Holdings (Shenzhen) Limited, priority 2021, published 2023).

System: mouse models with androgenic hair loss
Experiment: Therapeutic effect of microneedle patches in mouse models with androgenic hair loss built by topical testosterone
Format: in vivo
Conditions: testosterone-induced androgenic hair loss mice; patches used 15 days, replaced every three days; Minoxidil solution applied daily for 13 days
Procedure: The therapeutic effect of the anti-hair loss and hair growth integrated core-shell microneedle patch is tested, the mouse models with androgenic hair loss are built by topical administration of testosterone solution every day for 28 days, five groups of mouse models with androgenic hair loss are used to test the effect of the microneedle patch, one of the groups is a model group to which only testosterone solution is applied, the blank microneedle patch, the nano-enzyme microneedle patch (prepared in Comparative Example 1) and the core-shell microneedle patch (prepared in Embodiment 1) are used on the other three groups of mouse models with androgenic hair loss respectively, the patches are used for 15 days and replaced every three days, a Minoxidil solution is used for the last group and applied every day for 13 consecutive days. The measurement results are shown in Table 1, and the therapeutic effect of the anti-hair loss and hair growth integrated core-shell microneedle patch is judged by scoring the hair diameter, percentage of Ki67 positive cells and hair cycle.

For Nc1cc(N2CCCCC2)nc(N)[n+]1[O-] [Minoxidil], the Hair cycle score was 22, the Hair diameter was 11 μm and the Ki67 positive cells was 20%.
